Measured values taken from the supplement of paper PMC10307832.

Legend:
Assay in all cases: relative viability (nuclei count vs DMSO), 5 days (fraction); higher = more cells survive
Selisistat + Bortezomib = compound: C1CC(C2=C(C1)C3=C(N2)C=CC(=C3)Cl)C(=O)N [Selisistat] + CC(C)C[C@H](NC(=O)[C@H](Cc1ccccc1)NC(=O)c1cnccn1)B(O)O [Bortezomib] (partner 0.002 µM)
Method in brief: (§1)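 Dosing by pin tool came one day after lung cancer cell lines were seeded in 1536-well plates, using either one drug or a fixed anchor-drug dose plus five library-drug doses (not always all listed) in √10 steps. After 5 days, nuclei were counted on 4× images. Relative viability is treated-well nuclei count divided by vehicle-well nuclei count, and values are medians of duplicate plates.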

Selisistat + Dasatinib = compound: C1CC(C2=C(C1)C3=C(N2)C=CC(=C3)Cl)C(=O)N [Selisistat] + Cc1nc(Nc2ncc(C(=O)Nc3c(C)cccc3Cl)s2)cc(N2CCN(CCO)CC2)n1 [Dasatinib] (partner 0.075 µM)
Method in brief: as §1

Serdemetan + Lapatinib = compound: c1ccc2c(CCNc3ccc(Nc4ccncc4)cc3)c[nH]c2c1 [Serdemetan] + CS(=O)(=O)CCNCc1ccc(-c2ccc3ncnc(Nc4ccc(OCc5cccc(F)c5)c(Cl)c4)c3c2)o1 [Lapatinib] (partner 2 µM)
Method in brief: as §1

Selisistat + Luminespib = compound: C1CC(C2=C(C1)C3=C(N2)C=CC(=C3)Cl)C(=O)N [Selisistat] + CCNC(=O)c1noc(-c2cc(C(C)C)c(O)cc2O)c1-c1ccc(CN2CCOCC2)cc1 [Luminespib] (partner 0.01 µM)
Method in brief: as §1

**Q.** How did the relative viability (Selisistat + Bortezomib; first compound 0.4 µM) turn out when UMC-11 was run?
**A.** 0.494

**Q.** What about the relative viability (Selisistat + Bortezomib; first compound 1.265 µM) of the same cell line?
**A.** 0.71

**Q.** And the relative viability (Selisistat + Bortezomib; first compound 4 µM)?
**A.** 0.738

**Q.** And the relative viability (Selisistat + Bortezomib; first compound 12.65 µM)?
**A.** 0.671

**Q.** What about the relative viability (Selisistat + Bortezomib; first compound 40 µM) of the same cell line?
**A.** 0.626

**Q.** What about the relative viability (Selisistat + Dasatinib; first compound 0.4 µM) of the same cell line?
**A.** 0.434

**Q.** What about the relative viability (Selisistat + Dasatinib; first compound 1.265 µM) of the same cell line?
**A.** 0.477

**Q.** What about the relative viability (Selisistat + Dasatinib; first compound 4 µM) of the same cell line?
**A.** 0.521

**Q.** What about the relative viability (Selisistat + Dasatinib; first compound 12.65 µM) of the same cell line?
**A.** 0.476

**Q.** What about the relative viability (Selisistat + Dasatinib; first compound 40 µM) of the same cell line?
**A.** 0.559

**Q.** And the relative viability (Serdemetan + Lapatinib; first compound 0.04 µM)?
**A.** 0.953

**Q.** What about the relative viability (Serdemetan + Lapatinib; first compound 0.1265 µM) of the same cell line?
**A.** 0.915

**Q.** And the relative viability (Serdemetan + Lapatinib; first compound 0.4 µM)?
**A.** 1.03

**Q.** And the relative viability (Serdemetan + Lapatinib; first compound 1.265 µM)?
**A.** 0.703

**Q.** What about the relative viability (Serdemetan + Lapatinib; first compound 4 µM) of the same cell line?
**A.** 0.886

**Q.** What about the relative viability (Selisistat + Luminespib; first compound 0.4 µM) of the same cell line?
**A.** 1.03

**Q.** What about the relative viability (Selisistat + Luminespib; first compound 1.265 µM) of the same cell line?
**A.** 0.931

**Q.** And the relative viability (Selisistat + Luminespib; first compound 4 µM)?
**A.** 0.896

**Q.** And the relative viability (Selisistat + Luminespib; first compound 12.65 µM)?
**A.** 1.09

**Q.** And the relative viability (Selisistat + Luminespib; first compound 40 µM)?
**A.** 1
